Results from patent publication US6403647B1, “Pulsed administration of compositions for the treatment of blood disorders” (priority 1996, dated 2002).

Tests used:
[1] = system: fetal globin; assay: Proportion of fetal globin-expressing cells in culture, fluorescent antibodies, sickle cell patient; format: cell-based, human; settings: 14 days, controls 40.7%
Protocol: In a fourth experiment, erythroid cells were obtained from a sickle cell patient. These cells were established in culture both with and without test a variety of test compounds. Cultures were incubated for 14 days in methylcellulose media with maximal concentrations of all hematopoietic growth factors (GM-CSF, SCF, EPO). Colonies were analyzed using fluorescent monoclonal antibodies against fetal globin to determine the proportion of erythroid cells that expressed fetal globin.

[2] = system: system A transport of amino acids; assay: Uptake of 3H-methyl-aminoisobutyric acid (MeAIB) into erythroblasts; format: cell-based; settings: for amino acid (MeAIB) uptake / transport: 2.0 mM, relative to untreated fetal liver erythroid cells
Protocol: Erythroblasts were tested for alterations in uptake of radio-labelled amino acid (^3H-methyl-aminoisobutyric acid; MeAIB) in the presence of AB (arginine butyrate), AMHCA (α-methylhydrocinnamic acid), PAA (phenoxyacetic acid), and IBT (isobutyramide), each at 2.0 mM.

[3] = system: fetal globin; assay: Fetal globin production in erythroid progenitor colonies (Bfu-e), sickle cell anemia patient; format: cell-based, human; settings: controls 48% of non-α globin
[4] = system: Bfu-e; assay: Erythroid colony (Bfu-e) proliferation with maximal growth factors, normal subject; format: cell-based, human; settings: 0.2-0.5 mM where given
Source text: Erythroid cells were obtained, as described in Example 1, from a normal subject and cultured on semi-solid medium in the presence of a maximal amount of erythroid growth factors including IL-6, GM-CSF, SCF and EPO. Erythroid proliferation in the presence of these factors is expected to be maximal and, therefore, any increases observed would be significant.

[5] = system: K562 human erythroleukemia cells; settings: cited from earlier work
[6] = system: γ-globin expression; assay: γ-globin mRNA by RNase protection in erythroid cell cultures of normal individuals; format: cell-based, human; settings: for x increase in % s: over ChFCS
Protocol: Fetal globin production was determined in erythroid progenitor cells cultured in the presence or absence of test compositions. Erythroid cells were purified from blood obtained from a normal individual . […] Erythroid cell cultures were established with the following conditions: IMDM methylcellulose media, erythropoietin (3 U/ml), the human subjects' mononuclear cells, 30% charcoal-absorbed fetal calf serum, and the test compounds at varying micromolar concentrations.
Compounds were tested for their ability to induce expression of fetal globin expression in erythroid cell cultures established from the peripheral blood of normal individuals. Colonies were harvested and assayed for globin mRNA following 14 days of culture. Each compound was tested in duplicate cultures from 2-4 individual human subjects. Globin expression was quantitated by RNase protection assay for % gamma globin as a fraction of total non-alpha globin (% gamma/gamma+beta globin mRNA).

For `CCC(C)(C)C(=O)O` [2,2-dimethylbutyric acid], the “Increase in γ-Globin Expressing Cells” value ([1]; concentration not given) was 70.1%, the “amino acid (MeAIB) uptake / transport” value [2] was “moderate inhibition of transport” and the “inhibition of MeAIB uptake” value ([2]; after 60 and 120 minutes) was “somewhat less so”. For the same compound, the “increase in fetal globin over controls” value [3] was 24%.

In the case of `CC(Oc1ccc(Cl)cc1)C(=O)O` (stereo not drawn) [4-chlorophenoxy-2-propionic acid], the “Increase in γ-Globin Expressing Cells” value ([1]; 0.5 mM) is reported as 59.7% and the Bfu-e growth [4] is reported as “further increase Bfu-e growth”.

For `CCCCCCCCCC(=O)O` [caprate], the “ability to increase fetal globin expression” value [5] is given as “much less of an effect”.

In the case of `CCCCCC(=O)[O-].CCCCCC(=O)[O-].[Ca+2]` [caproate], the “ability to increase fetal globin expression” value [5] is listed as “much less of an effect”.

In the case of `CCCCCCCC(=O)O` [caprylate], the “ability to increase fetal globin expression” value [5] is listed as “much less of an effect”.

With `CCOC(=O)/C=C/C(=O)O` [fumaric acid monoethyl ester] the “Increase in γ-Globin Expressing Cells” value ([1]; concentration not given) was 59.1% and the “amino acid (MeAIB) uptake / transport” value [2] was “did not inhibit amino acid transport”.

With `COCC(=O)O` [methoxyacetic acid] the “increase in fetal globin over controls” value [3] was 3%.

In the case of `O=C(CCCCCCC(=O)NO)NO` [suberoyl bis hydroxamic acid, Suberoyl bis hydroxamic acid], the “x increase in % s” value ([6]; 0.5 μM, group 1 (99-3a, 99-3b)) is reported as 1.6 x, the “γ/γ + β” value ([6]; 0.5 μM, group 1, subject 99-3a) is reported as 13.54% and the “γ/γ + β” value ([6]; 0.5 μM, group 1, subject 99-3b) is reported as 11.55%. For the same compound, the “γ/γ + β mean” value ([6]; 0.5 μM, group 1, subjects 99-3a, 99-3b) was 12.55%, the “x increase in % s” value ([6]; 0.5 μM, group 2 (99-4, 99-5)) was 0.9 x and the “γ/γ + β” value ([6]; 0.5 μM, group 2, subject 99-4) was 6.25%. For the same compound, the “γ/γ + β” value ([6]; 0.5 μM, group 2, subject 99-5) was 6.42%, the “γ/γ + β mean” value ([6]; 0.5 μM, group 2, subjects 99-4, 99-5) was 6.34% and the “x increase in % s” value ([6]; 1 μM, group 1 (99-3a, 99-3b)) was 1.3 x. For the same compound, the “γ/γ + β” value ([6]; 1 μM, group 1, subject 99-3a) was 10.99%, the “γ/γ + β” value ([6]; 1 μM, group 1, subject 99-3b) was 9.19% and the “γ/γ + β mean” value ([6]; 1 μM, group 1, subjects 99-3a, 99-3b) was 10.09%. The “x increase in % s” value ([6]; 1 μM, group 2 (99-4, 99-5)) was 1.2 x, the “γ/γ + β” value ([6]; 1 μM, group 2, subject 99-4) was 8.46% and the “γ/γ + β mean” value ([6]; 1 μM, group 2, subject 99-4 only) was 8.46%. For the same compound, the “x increase in % s” value ([6]; 1 μM, group 3 (99-6, 99-7, 99-10)) was 1.5 x, the “γ/γ + β” value ([6]; 1 μM, group 3, subject 99-6) was 5.41% and the “γ/γ + β” value ([6]; 1 μM, group 3, subject 99-7) was 10.76%. The “γ/γ + β” value ([6]; 1 μM, group 3, subject 99-10) was 6.92%, the “γ/γ + β mean” value ([6]; 1 μM, group 3, subjects 99-6, 99-7, 99-10) was 7.70% and the “x increase in % s” value ([6]; 2 μM, group 1 (99-3a, 99-3b)) was 2.9 x. For the same compound, the “γ/γ + β” value ([6]; 2 μM, group 1, subject 99-3a) was 21.36%, the “γ/γ + β” value ([6]; 2 μM, group 1, subject 99-3b) was 23.63% and the “γ/γ + β mean” value ([6]; 2 μM, group 1, subjects 99-3a, 99-3b) was 22.50%. The “x increase in % s” value ([6]; 2 μM, group 2 (99-4, 99-5)) was 1.5 x, the “γ/γ + β” value ([6]; 2 μM, group 2, subject 99-4) was 9.92% and the “γ/γ + β” value ([6]; 2 μM, group 2, subject 99-5) was 10.65%. The “γ/γ + β mean” value ([6]; 2 μM, group 2, subjects 99-4, 99-5) was 10.29%, the “x increase in % s” value ([6]; 2 μM, group 3 (99-6, 99-7, 99-10)) was 2.1 x and the “γ/γ + β” value ([6]; 2 μM, group 3, subject 99-6) was 6.65%. For the same compound, the “γ/γ + β” value ([6]; 2 μM, group 3, subject 99-7) was 15.75%, the “γ/γ + β” value ([6]; 2 μM, group 3, subject 99-10) was 10.00% and the “γ/γ + β mean” value ([6]; 2 μM, group 3, subjects 99-6, 99-7, 99-10) was 10.80%. For the same compound, the “x increase in % s” value ([6]; 3 μM, group 1 (99-3a, 99-3b)) was 3.2 x, the “γ/γ + β” value ([6]; 3 μM, group 1, subject 99-3a) was 24.90% and the “γ/γ + β” value ([6]; 3 μM, group 1, subject 99-3b) was 23.72%. For the same compound, the “γ/γ + β mean” value ([6]; 3 μM, group 1, subjects 99-3a, 99-3b) was 24.31%, the “x increase in % s” value ([6]; 3 μM, group 2 (99-4, 99-5)) was 2.6 x and the “γ/γ + β” value ([6]; 3 μM, group 2, subject 99-4) was 17.99%. The “γ/γ + β” value ([6]; 3 μM, group 2, subject 99-5) was 17.89%, the “γ/γ + β mean” value ([6]; 3 μM, group 2, subjects 99-4, 99-5) was 17.94% and the “x increase in % s” value ([6]; 4 μM, group 1 (99-3a, 99-3b)) was 6.4 x. The “γ/γ + β” value ([6]; 4 μM, group 1, subject 99-3a) was 48.57%, the “γ/γ + β” value ([6]; 4 μM, group 1, subject 99-3b) was 50.66% and the “γ/γ + β mean” value ([6]; 4 μM, group 1, subjects 99-3a, 99-3b) was 49.62%. For the same compound, the “x increase in % s” value ([6]; 4 μM, group 2 (99-4, 99-5)) was 3.4 x, the “γ/γ + β” value ([6]; 4 μM, group 2, subject 99-4) was 24.10% and the “γ/γ + β mean” value ([6]; 4 μM, group 2, subject 99-4 only) was 24.10%. For the same compound, the “x increase in % s” value ([6]; 4 μM, group 3 (99-6, 99-7, 99-10)) was 3.9 x, the “γ/γ + β” value ([6]; 4 μM, group 3, subject 99-6) was 13.33% and the “γ/γ + β” value ([6]; 4 μM, group 3, subject 99-7) was 30.45%. The “γ/γ + β” value ([6]; 4 μM, group 3, subject 99-10) was 15.73%, the “γ/γ + β mean” value ([6]; 4 μM, group 3, subjects 99-6, 99-7, 99-10) was 19.84% and the “x increase in % s” value ([6]; 4 μM, group 4 (99-10, 00-1, 00-3)) was 1.7 x. For the same compound, the “γ/γ + β” value ([6]; 4 μM, group 4, subject 00-1) was 4.82%, the “γ/γ + β” value ([6]; 4 μM, group 4, subject 00-3) was 5.01% and the “γ/γ + β” value ([6]; 4 μM, group 4, subject 99-10) was 11.38%. For the same compound, the “γ/γ + β mean” value ([6]; 4 μM, group 4, subjects 99-10, 00-1, 00-3) was 7.07%, the “x increase in % s” value ([6]; 6 μM, group 3 (99-6, 99-7, 99-10)) was 5.5 x and the “γ/γ + β” value ([6]; 6 μM, group 3, subject 99-6) was 22.97%. For the same compound, the “γ/γ + β” value ([6]; 6 μM, group 3, subject 99-7) was 31.51%, the “γ/γ + β” value ([6]; 6 μM, group 3, subject 99-10) was 29.15% and the “γ/γ + β mean” value ([6]; 6 μM, group 3, subjects 99-6, 99-7, 99-10) was 27.88%. For the same compound, the “x increase in % s” value ([6]; 6 μM, group 4 (99-10, 00-1, 00-3)) was 2.7 x, the “γ/γ + β” value ([6]; 6 μM, group 4, subject 00-1) was 9.46% and the “γ/γ + β” value ([6]; 6 μM, group 4, subject 00-3) was 8.89%. The “γ/γ + β” value ([6]; 6 μM, group 4, subject 99-10) was 16.34%, the “γ/γ + β mean” value ([6]; 6 μM, group 4, subjects 99-10, 00-1, 00-3) was 11.56% and the “x increase in % s” value ([6]; 8 μM, group 3 (99-6, 99-7, 99-10)) was 7.4 x. The “γ/γ + β” value ([6]; 8 μM, group 3, subject 99-6) was 31.99%, the “γ/γ + β” value ([6]; 8 μM, group 3, subject 99-7) was 44.02% and the “γ/γ + β” value ([6]; 8 μM, group 3, subject 99-10) was 35.73%. For the same compound, the “γ/γ + β mean” value ([6]; 8 μM, group 3, subjects 99-6, 99-7, 99-10) was 37.25%, the “x increase in % s” value ([6]; 8 μM, group 4 (99-10, 00-1, 00-3)) was 4.4 x and the “γ/γ + β” value ([6]; 8 μM, group 4, subject 00-1) was 12.88%. For the same compound, the “γ/γ + β” value ([6]; 8 μM, group 4, subject 00-3) was 21.68%, the “γ/γ + β” value ([6]; 8 μM, group 4, subject 99-10) was 21.37% and the “γ/γ + β mean” value ([6]; 8 μM, group 4, subjects 99-10, 00-1, 00-3) was 18.64%. For the same compound, the “x increase in % s” value ([6]; 10 μM, group 4 (99-10, 00-1, 00-3)) was 7.3 x, the “γ/γ + β” value ([6]; 10 μM, group 4, subject 00-1) was 27.89% and the “γ/γ + β” value ([6]; 10 μM, group 4, subject 00-3) was 31.25%. For the same compound, the “γ/γ + β” value ([6]; 10 μM, group 4, subject 99-10) was 35.06%, the “γ/γ + β mean” value ([6]; 10 μM, group 4, subjects 99-10, 00-1, 00-3) was 31.40% and the “x increase in % s” value ([6]; 12 μM, group 4 (99-10, 00-1, 00-3)) was 10.8 x. The “γ/γ + β” value ([6]; 12 μM, group 4, subject 00-3) was 45.69%, the “γ/γ + β” value ([6]; 12 μM, group 4, subject 99-10) was 46.94% and the “γ/γ + β mean” value ([6]; 12 μM, group 4, subjects 99-10, 00-3) was 46.32%.

For `O=C(O)CSc1ccccc1` [thiophenoxyacetic acid], the “increase in fetal globin over controls” value [3] was 38%.

With `CC(=Cc1ccccc1)C(=O)O` [α-methylcinnamic acid] the “increase in fetal globin over controls” value [3] was 12%.

In the case of diethyl butyric acid, the “amino acid (MeAIB) uptake / transport” value [2] is reported as “did not inhibit amino acid transport”.
